From PubChem BioAssay (NCI) come the findings set out here.

Among the test systems are 786-0 renal; ACHN renal; BT-549 breast; CAKI-1 renal; CCRF-CEM leukemia; EKVX NSCLC; HCC-2998 colon; HCT-15 colon; IGROV1 ovarian; LOX IMVI melanoma; MALME-3M melanoma; MDA-N; NCI-H23 lung; OVCAR-8 ovarian; SK-MEL-2 melanoma; SK-MEL-28 melanoma; SK-OV-3 ovarian; SN12C renal; SW-620 colon; TK-10 renal.
Common to all, as to assay: growth of human tumour cells (NCI), 48 h

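Test compounds were applied to cells in 96-well plates for 48 hours at 5 doses. TGI: concentration producing complete growth inhibition.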 A value given as a limit tells only on which side of the number the result lay.

As to `Cc1nc2c(o1)C(=O)c1ccccc1C2=Nc1ccc(N2CCOCC2)cc1`, the TGI with 786-0 renal was 61 µM; in the experiment with ACHN renal, 18.9 µM; in the experiment with BT-549 breast it was 5.73 µM; with CAKI-1 renal, 42.7 µM; in the experiment on CCRF-CEM leukemia, over 36.8 µM; in the experiment on EKVX NSCLC, 17.4 µM. Moreover, the TGI in the experiment with HCC-2998 colon is 99.8 µM; with HCT-15 colon, 15.8 µM; in the experiment with IGROV1 ovarian, 30.4 µM; with LOX IMVI melanoma, 8.62 µM; in the experiment with MALME-3M melanoma, 3.25 µM; in the experiment on MDA-N, 3.5 µM. Also, the TGI in the experiment on NCI-H23 lung is 7.62 µM; in the experiment with OVCAR-8 ovarian, over 27.7 µM; with SK-MEL-2 melanoma it was 9.63 µM; with SK-MEL-28 melanoma, 7.69 µM; in the experiment with SK-OV-3 ovarian, over 100 µM; in the experiment with SN12C renal, 10.2 µM. Further, the TGI in the experiment with SW-620 colon is 26.5 µM; in the experiment on TK-10 renal it was 99.1 µM.
Regarding `CC[C@]12C=CCN3CC[C@@]4(c5cc(Br)c(OC)cc5N(C)[C@H]4[C@@](O)(C(=O)N[C@@H](Cc4ccc(O)cc4)C(=O)OC)[C@@H]1O)[C@@H]32`, the TGI with 786-0 renal is over 100 µM; in the experiment on ACHN renal it was over 100 µM; in the experiment on BT-549 breast, 41.4 µM; in the experiment on CAKI-1 renal, 77.9 µM; with CCRF-CEM leukemia it was 44 µM; with EKVX NSCLC, over 100 µM. For the same molecule, the TGI in the experiment with HCC-2998 colon came out at 94.6 µM; in the experiment with HCT-15 colon it was 76.3 µM; with IGROV1 ovarian, 73.3 µM; in the experiment on LOX IMVI melanoma, 34.8 µM; in the experiment on MALME-3M melanoma, 29.1 µM; in the experiment with MDA-N it was 49.1 µM. Besides, the TGI in the experiment with NCI-H23 lung is over 100 µM; with OVCAR-8 ovarian, over 100 µM; in the experiment on SK-MEL-2 melanoma, 60.1 µM; in the experiment with SK-MEL-28 melanoma, over 100 µM; with SK-OV-3 ovarian it was over 100 µM; in the experiment with SN12C renal, 37.9 µM. Also, the TGI with SW-620 colon was over 100 µM; in the experiment on TK-10 renal it was 79.5 µM.
`COC(=O)/C=C\C(C#N)(C#N)N=Cc1ccc(Br)s1`: the TGI worked out at 12.9 µM with 786-0 renal; 6.1 µM in the experiment on ACHN renal; 16.8 µM in the experiment on BT-549 breast; 5.94 µM with CAKI-1 renal; 5.5 µM with CCRF-CEM leukemia; 26.4 µM with EKVX NSCLC. For the same molecule, the TGI in the experiment with HCC-2998 colon stood at 34.4 µM; in the experiment with HCT-15 colon, 6.63 µM; in the experiment with IGROV1 ovarian, 31.9 µM; in the experiment with LOX IMVI melanoma, 7.39 µM; in the experiment with MALME-3M melanoma, 4.27 µM; in the experiment on MDA-N it was 24.4 µM. The TGI with NCI-H23 lung was 46.9 µM; in the experiment with OVCAR-8 ovarian, 19.1 µM; in the experiment on SK-MEL-2 melanoma it was 33.2 µM; with SK-MEL-28 melanoma it was 33.7 µM; in the experiment with SK-OV-3 ovarian, 33.4 µM; in the experiment on SN12C renal it was 35.1 µM. The TGI amounted to 5.53 µM in the experiment on SW-620 colon and 6.65 µM in the experiment on TK-10 renal.
Regarding `CCOP(=O)(OCC)[C@H]1OC(C)(C)O[C@@H]1CO`, the TGI with 786-0 renal, in the experiment with ACHN renal, in the experiment on BT-549 breast, in the experiment on CAKI-1 renal, in the experiment on CCRF-CEM leukemia and with EKVX NSCLC was over 100 µM in each case. Moreover, the TGI in the experiment with HCC-2998 colon, in the experiment on HCT-15 colon, with IGROV1 ovarian, in the experiment on LOX IMVI melanoma, with MALME-3M melanoma and in the experiment with MDA-N was over 100 µM throughout. Besides, the TGI with NCI-H23 lung, with OVCAR-8 ovarian, with SK-MEL-2 melanoma, in the experiment on SK-MEL-28 melanoma, in the experiment on SK-OV-3 ovarian and in the experiment with SN12C renal was over 100 µM throughout. Besides, the TGI in the experiment with SW-620 colon and with TK-10 renal was over 100 µM throughout.
`O[C@@H]1C[C@H]2N3CC[C@@]2(c2cc4c(cc2C3)OCO4)[C@H]2O[C@@H]12`: the TGI in the experiment with 786-0 renal, in the experiment on ACHN renal, with BT-549 breast, in the experiment on CAKI-1 renal, in the experiment on CCRF-CEM leukemia and with EKVX NSCLC was over 100 µM throughout. The TGI in the experiment on HCC-2998 colon, in the experiment with HCT-15 colon, with IGROV1 ovarian, in the experiment on LOX IMVI melanoma, with MALME-3M melanoma and in the experiment with MDA-N was over 100 µM throughout. For the same molecule, the TGI in the experiment with NCI-H23 lung, with OVCAR-8 ovarian, in the experiment on SK-MEL-2 melanoma, in the experiment on SK-MEL-28 melanoma, in the experiment with SK-OV-3 ovarian and in the experiment on SN12C renal was over 100 µM in each case. In addition, the TGI with SW-620 colon and with TK-10 renal was over 100 µM in each case.
Turning to `COCn1c(C)c(C)c2c(=O)oc(N(C)C)nc21`, the TGI in the experiment on 786-0 renal, with ACHN renal, in the experiment with BT-549 breast, in the experiment on CAKI-1 renal, with CCRF-CEM leukemia and with EKVX NSCLC was over 100 µM throughout. For the same molecule, the TGI in the experiment with HCC-2998 colon, in the experiment with HCT-15 colon, in the experiment with IGROV1 ovarian, in the experiment on LOX IMVI melanoma, with MALME-3M melanoma and in the experiment on MDA-N was over 100 µM throughout. In addition, the TGI in the experiment on NCI-H23 lung, in the experiment on OVCAR-8 ovarian, in the experiment with SK-MEL-2 melanoma, in the experiment with SK-MEL-28 melanoma, in the experiment on SK-OV-3 ovarian and in the experiment on SN12C renal was over 100 µM each time. For the same molecule, the TGI in the experiment with SW-620 colon and in the experiment with TK-10 renal was over 100 µM in each case.
